Like-named read-outs stand apart in the source and are kept apart here.
Experiments:
[1] = system: CHO cells genetically engineered to express the antibody; conditions: for Product titer: day-7 batch culture; for viable cell density (VCD): day 4
Protocol: (§1) The effect of putrescine on antibody glycoforms of a model antibody produced by CHO cells was analyzed. CHO cells genetically engineered to express the antibody were grown initially in base media (Power CHO2, Catalog #BE15-771, Lonza Inc., Allendale, N.J.). Cells were then inoculated (at 0.55×10^6 cells/mL) into a chemically defined medium containing 0.17 mg/L, 0.35 mg/L, or […] putrescine 2HCl and cultured as a batch culture in TPP tubespins for 7 days.
(§2) Cell viability was assessed on day 4 using a hemocytometer using cells stained with trypan blue. Titer was determined from the day-7 cultures by protein A affinity HPLC. Relative quantitation of each glycoform was performed on purified protein using Chip ToF. Chip ToF uses mass spectrometry to measure the extracted ion chromatogram (XIC) area for each species after chip-based enzymatic removal and purification of N-glycans, relative to the total XIC for detected species (see, e.g., mAb-Glyco Chip Kit, Agilent Technologies).

[2] = system: model antibody produced by CHO cells
Protocol: as §1, §2

[3] = with increasing levels of putrescine, FIG. 4
[4] = with increasing putrescine, FIG. 3

NCCCCN [putrescine]
Product titer ([1]; 0.17 mg/L putrescine in medium): 40 mg/L | viable cell density (VCD) ([1]; 0.17 mg/L putrescine): 1.5×10^6 cells/mL | Product titer ([1]; 0.35 mg/L putrescine in medium): 58 mg/L | viable cell density (VCD) ([1]; 0.35 mg/L putrescine): 1.8×10^6 cells/mL | Product titer ([1]; 0.52 mg/L putrescine in medium): 73 mg/L | viable cell density (VCD) ([1]; 0.52 mg/L putrescine): 2.2×10^6 cells/mL | relative change in G0F, G1F, and G2F ([2]; 0.52 mg/L putrescine compared to 0.17 mg/L putrescine, FIG. 3): about 10% | putrescine level above which effect on fucosylated glycans saturates ([2]; non-linear relationship, FIG. 2): above 0.35 mg/mL | fraction of fucosylated glycans ([2]; with increasing levels of putrescine (0.17-0.52 mg/L), FIG. 2): increased | high mannose glycans [2, 3]: reduced | level of sialylated glycans [2, 3]: increased | level of galactosylation ([2]; with increasing putrescine): increase | levels of G0F [2, 4]: reduced | levels of G1F [2, 4]: increased | levels of G2F [2, 4]: increased

Reference: patent US10144944B2, “Methods of cell culture” (Momenta Pharmaceuticals, Inc., priority 2013, dated 2018)
